According to US20260217693A1, “SRPK1 INHIBITORS AND METHODS OF USE” (ALLIANTHERA (SUZHOU) BIOPHARMACEUTICAL CO., LTD., priority 2023, published 2026):

Molecular target: SRPK1 (Homo sapiens, UniProt Q96SB4)
Experiment: SRPK1 assay, Method 1 (ADP-Glo luminescence)
Assay type: biochemical
Conditions: Method 1 (no asterisk): substrate Human SRSF1/SF2, 25° C. for 90 min, test compounds 30 μM top, 3-fold, duplicate
Protocol: The SPRK1 assay was performed as follows:
Method 1: The assay buffer was prepared. The reference compound was diluted to 10 mM. The test compounds were prepared at a concentration of 30 mM. Fifteen nL of compounds/DMSO were transferred to a multi-well plate. Then, 7.5 ul enzyme SRPK1 was added to each well, the plate was spun down at 1000 rpm and centrifuged for 30 sec. Then, 7.5 ul substrate Human SRSF1/SF2 was added to each well, the plate spun down at 1000 rpm and centrifuged for 30 sec. The plate was then incubated at 25° C. for 90 min. After 90 min, 5 μl of ADP-Glo™ Reagent was added to each well and the plate incubated at room temperature for 60 minutes. Then, 10 μl of Kinase Detection Reagent was added to each well and the plate incubate at room temperature for 60 minutes. The luminescence of each well was recorded on Envision. The test compounds were at 30 μM top, 3-fold, in duplicate, and the final concentration of DMSO was 0.1%.
All assays were performed using Method 1, except where indicated with an asterisk (*) in the below table, indicating Method 2 was used.

Sequence of SRPK1 (Q96SB4 whole entry): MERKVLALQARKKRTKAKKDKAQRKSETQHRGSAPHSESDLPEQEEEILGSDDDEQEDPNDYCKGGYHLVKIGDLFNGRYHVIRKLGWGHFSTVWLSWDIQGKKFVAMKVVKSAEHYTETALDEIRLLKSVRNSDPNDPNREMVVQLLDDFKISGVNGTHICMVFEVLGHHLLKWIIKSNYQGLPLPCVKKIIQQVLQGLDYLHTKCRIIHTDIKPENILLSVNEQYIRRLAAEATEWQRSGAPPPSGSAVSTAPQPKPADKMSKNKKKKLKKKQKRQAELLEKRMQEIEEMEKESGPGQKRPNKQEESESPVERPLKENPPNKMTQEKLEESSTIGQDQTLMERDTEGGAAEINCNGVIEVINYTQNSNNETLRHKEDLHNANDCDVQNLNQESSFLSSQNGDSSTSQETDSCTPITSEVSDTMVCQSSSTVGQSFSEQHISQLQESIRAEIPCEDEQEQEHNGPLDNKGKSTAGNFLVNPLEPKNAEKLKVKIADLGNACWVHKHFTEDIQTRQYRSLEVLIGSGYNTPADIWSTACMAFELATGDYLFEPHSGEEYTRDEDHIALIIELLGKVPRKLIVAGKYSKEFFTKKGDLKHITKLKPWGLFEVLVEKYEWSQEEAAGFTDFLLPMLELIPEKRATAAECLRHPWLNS

| Compound | IC50 |
| --- | --- |
| CC(=O)OC1CCN(c2ncc(C3CC3)cc2NC(=O)c2ccc(C3CCOCC3)o2)CC1 [Compound 028] | 0.105 µM |
| O=C(Nc1cc(C(F)(F)F)cnc1N1CCC(O)(C(F)(F)F)CC1)c1ccc(-c2ccncc2)o1 [Compound 064] | 0.249 µM |
| O=C(Nc1cc(C(F)(F)F)cnc1N1CCC(CO)C1)c1ccc(C2CCOCC2)o1 (stereo not shown) [Compound 038] | 24.5 µM |
| CN1CCC2(CCN(c3ncc(C(F)(F)F)cc3NC(=O)c3ccc(C4CCOCC4)o3)CC2)C1=O [Compound 030] | 0.232 µM |
| C[C@@H]1C[C@@H](O)CCN1c1ncc(C(F)(F)F)cc1NC(=O)c1ccc(Br)o1 [Compound 107, 5-bromo-N-[2-[(2R,4S)-4-hydroxy-2-methyl-1-piperidyl]-5-(trifluoromethyl)-3-pyridyl]furan-2-carboxamide] | 0.746 µM |
| C[C@@H]1C[C@@H](O)CCN1c1ncc(C2CC2)cc1NC(=O)c1ccc(-c2ccnc(N)c2)o1 [Compound 119] | > 30 µM |
| CC(=O)OC1CCN(c2ncc(C3CC3)cc2NC(=O)c2ccc(-c3ccncc3)o2)CC1 [Compound 033, 1-(5-cyclopropyl-3-(5-(pyridin-4-yl)furan-2-carboxamido)pyridin-2-yl) piperidin-4-yl acetate] | 0.202 µM |
| Nc1n[nH]cc1-c1ccc(C(=O)Nc2cc(C(F)(F)F)cnc2N2CCC(O)CC2)o1 [Compound 106, 5-(3-amino-1H-pyrazol-4-yl)-N-[2-(4-hydroxy-1-piperidyl)-5-(trifluoromethyl)-3-pyridyl]furan-2-carboxamide] | 0.142 µM |
| O=C(Nc1cc(C(F)(F)F)cnc1N1CC(O)C1)c1ccc(C2CCOCC2)o1 [Compound 039] | > 30 µM |
| C[C@@H]1C[C@@H](O)CCN1c1ncc(C(F)(F)F)cc1NC(=O)c1ccc(-c2ccnc(N)c2)o1 [Compound 114] | > 30 µM |
| C[C@@H]1C[C@@H](O)CCN1c1ncc(C(F)(F)F)cc1NC(=O)c1ccc(-c2cc(N)nc(N)c2)o1 [Compound 132] | > 30 µM |
| O=C(Nc1cc(C(F)(F)F)cnc1N1CCc2[nH]ncc2C1)c1ccc(Br)o1 [Compound 115] | > 30 µM |
| CC1(O)CCN(c2ncc(C3CC3)cc2NC(=O)c2ccc(-c3ccncc3)o2)CC1 [Compound 136, N-(5-cyclopropyl-2-(4-hydroxy-4-methylpiperidin-1-yl)pyridin-3-yl)-5-(pyridin-4-yl) furan-2-carboxamide] | 0.036 µM |
| O=C(Nc1cc(C(F)(F)F)cnc1N1CCc2[nH]ncc2C1)c1ccc(-c2cn[nH]c2)o1 [Compound 123] | > 30 µM |
| Nc1cc(-c2ccc(C(=O)Nc3cc(C(F)(F)F)cnc3N3CCc4[nH]ncc4C3)o2)cc(N)n1 [Compound 130] | > 30 µM |
| CN1CCC(c2ncc(C(F)(F)F)cc2NC(=O)c2ccc(C3CCOCC3)o2)CC1 [Compound 071, N-(2-(1-methylpiperidin-4-yl)-5-(trifluoromethyl)pyridin-3-yl)-5-(tetrahydro-2H-pyran-4-yl) furan-2-carboxamide] | 6.87 µM |

| Compound | IC50 |
| --- | --- |
| CC1(O)CCN(c2ncc(C(F)(F)F)cc2NC(=O)c2ccc(C3CCOCC3)o2)CC1 [Compound 027, N-[2-(4-hydroxy-4-methyl-1-piperidyl)-5-(trifluoromethyl)-3-pyridyl]-5-tetrahydropyran-4-yl-furan-2-carboxamide] | 0.0367 µM |
| C[C@@H]1C[C@H](O)CCN1c1ncc(C(F)(F)F)cc1NC(=O)c1ccc(-c2cc(N)nc(N)c2)o1 [Compound 133] | > 30 µM |
| C[C@@H]1C[C@H](O)CCN1c1ncc(C2CC2)cc1NC(=O)c1ccc(-c2cn[nH]c2)o1 [Compound 127] | > 30 µM |
| O=C(O)c1ccc(C(=O)Nc2cc(C(F)(F)F)cnc2N2CCC(O)CC2)o1 [Compound 098] | 0.871 µM |
| CC1(CN)CCN(c2ncc(C(F)(F)F)cc2NC(=O)c2ccc(C3CCOCC3)o2)CC1 [Compound 043] | > 30 µM |
| O=C(Nc1cc(C(F)(F)F)cnc1N1CCC2(CCNC2=O)CC1)c1ccc(C2CCOCC2)o1 [Compound 073] | 0.0593 µM |
| COc1ccc(C(=O)Nc2cc(C(F)(F)F)cnc2N2CCC(O)CC2)nc1 [Compound 090] | 1.38 µM |
| O=C(Nc1cc(C(F)(F)F)cnc1N1CCC(CO)CC1)c1ccc(C2CCOCC2)o1 [Compound 083] | 0.0398 µM |
| O=C(Nc1cc(C(F)(F)F)cnc1N1CCOCC1)c1ccc(C2CCOCC2)o1 [Compound 037] | > 30 µM |
| CN1CCC(c2ccc(C(=O)Nc3cc(C(F)(F)F)cnc3N3CCC(O)CC3)o2)CC1 [Compound 066, N-[2-(4-hydroxy-1-piperidyl)-5-(trifluoromethyl)-3-pyridyl]-5-(1-methyl-4-piperidyl) furan-2-carboxamide] | > 30 µM |
| C[C@@H]1C[C@H](O)CCN1c1ncc(C(F)(F)F)cc1NC(=O)c1ccc(-c2cn[nH]c2)o1 [Compound 110] | 0.0161 µM |
| NC(=O)C1CCN(c2ncc(C(F)(F)F)cc2NC(=O)c2ccc(C3CCOCC3)o2)CC1 [Compound 088] | 0.0717 µM |
| O=C(Nc1cc(Cl)cnc1N1CCC(O)CC1)c1ccc(C2CCOCC2)o1 [Compound 007] | 0.252 µM |
| O=C(Nc1cc(C(F)(F)F)cnc1N1CCC(O)CC1)c1ccc(-c2cc[nH]n2)o1 [Compound 084] | 0.0607 µM |
| O=C(Nc1cc(C(F)(F)F)cnc1N1CCC(O)CC1)c1cccnc1 [Compound 051] | > 30 µM |
| O=C(Nc1cc(C(F)(F)F)cnc1-c1ccn[nH]1)c1ccc(C2CCOCC2)o1 [Compound 019] | 0.217 µM |

Continued, values first:

| IC50 | Compound |
| --- | --- |
| 14.7 µM | O=C(Nc1cc(C(F)(F)F)cnc1-c1cncnc1)c1ccc(C2CCOCC2)o1 [Compound 013] |
| 0.0183 µM | NC(=O)C1(O)CCN(c2ncc(C(F)(F)F)cc2NC(=O)c2ccc(C3CCOCC3)o2)CC1 [Compound 096, 4-hydroxy-1-[3-[(5-tetrahydropyran-4-ylfuran-2-carbonyl)amino]-5-(trifluoromethyl)-2-pyridyl]piperidine-4-carboxamide] |
| 0.0555 µM | O=C(Nc1cc(C(F)(F)F)cnc1N1CCC2(CCOC2=O)CC1)c1ccc(C2CCOCC2)o1 [Compound 082] |
| > 30 µM | O=C(Nc1cc(C2CC2)cnc1N1CCc2[nH]ncc2C1)c1ccc(-c2cn[nH]c2)o1 [Compound 121] |
| 0.0787 µM | CC(=O)OC1CC2(CCN(c3ncc(C(F)(F)F)cc3NC(=O)c3ccc(C4CCOCC4)o3)CC2)C1 [Compound 059] |
| 0.358 µM | CC1(O)CCN(c2ncc(C(F)(F)F)cc2NC(=O)c2ccc(-c3ccncc3)o2)CC1 [Compound 026] |
| 0.309 µM | O=C(Nc1cc(C(F)(F)F)cnc1N1CCN(Cc2ccccn2)CC1)c1ccc(C2CCOCC2)o1 [Compound 002, N-(2-(4-(pyridin-2-ylmethyl)piperazin-1-yl)-5-(trifluoromethyl)pyridin-3-yl)-5-(tetrahydro-2H-pyran-4-yl) furan-2-carboxamide] |
| 15.7 µM | CC1(O)CCCN(c2ncc(C(F)(F)F)cc2NC(=O)C2CCC(C3CCOCC3)O2)CC1 (stereo not shown) [Compound 058] |
| 0.0185 µM | Cn1cc(-c2ccc(C(=O)Nc3cc(C(F)(F)F)cnc3N3CCC(O)CC3)o2)cn1 [Compound 054] |
| 0.556 µM | O=C(Nc1cc(C(F)(F)F)cnc1N1CCC(O)CC1)c1ccc(-c2c[nH]cn2)o1 [Compound 104] |
| 0.204 µM | O=C1CC2(CCN(c3ncc(C(F)(F)F)cc3NC(=O)c3ccc(C4CCOCC4)o3)CC2)C1 [Compound 065, N-(2-(2-oxo-7-azaspiro[3.5]nonan-7-yl)-5-(trifluoromethyl)pyridin-3-yl)-5-(tetrahydro-2H-pyran-4-yl) furan-2-carboxamide] |
| 0.0394 µM | C[C@@H]1C[C@H](O)CCN1c1ncc(C(F)(F)F)cc1NC(=O)c1ccc(-c2ccnc(N)c2)o1 [Compound 111] |
| 7.49 µM | Cn1cc(-c2ncc(C(F)(F)F)cc2NC(=O)c2ccc(C3CCOCC3)o2)cn1 [Compound 011] |
| 0.0637 µM | O=C(Nc1cc(C(F)(F)F)cnc1N1CCC(O)(C(F)(F)F)CC1)c1ccc(C2CCOCC2)o1 [Compound 069] |
| > 30 µM | O=C(Nc1cc(C(F)(F)F)cnc1N1CCC(O)CC1)c1ccc(C(F)(F)F)cn1 [Compound 077] |
| > 30 µM | Nc1cc(-c2ccc(C(=O)Nc3cc(C(F)(F)F)cnc3N3CCc4[nH]ncc4C3)o2)ccn1 [Compound 124] |
| 0.0551 µM | O=C(Nc1cc(C2CC2)cnc1N1CCC(O)CC1)c1ccc(-c2ccnc(F)c2)o1 [Compound 023] |
| 0.193 µM | CN(C)C(=O)C1CCN(c2ncc(C(F)(F)F)cc2NC(=O)c2ccc(C3CCOCC3)o2)CC1 [Compound 040] |
| 8.2 µM | O=C(Nc1cc(C(F)(F)F)cnc1N1CCC(O)CC1)c1ccc(C2CCNCC2)o1 [Compound 061] |
| > 30 µM | C[C@@H]1C[C@H](O)CCN1c1ncc(C2CC2)cc1NC(=O)c1ccc(Br)o1 [Compound 126] |
| > 30 µM | C[C@@H]1C[C@@H](O)CCN1c1ncc(C2CC2)cc1NC(=O)c1ccc(Br)o1 [Compound 116] |
| 13.5 µM | O=C(Nc1cc(C(F)(F)F)cnc1N1CCC(O)CC1)c1ccc(-c2cncnc2)o1 [Compound 063] |
| > 30 µM | O=C(Nc1cc(C(F)(F)F)cnc1N1CCC(O)CC1)c1cc(-c2cn[nH]c2)ccn1 [Compound 094, N-[2-(4-hydroxy-1-piperidyl)-5-(trifluoromethyl)-3-pyridyl]-4-(1H-pyrazol-4-yl)pyridine-2-carboxamide] |
| 0.0135 µM | O=C(Nc1cc(C(F)(F)F)cnc1N1CCC(O)CC1)c1ccc(-c2ccnc(O)c2)o1 [Compound 021] |
| 1.26 µM | O=C(Nc1cc(C(F)(F)F)cnc1N1CCC(O)CC1)c1ccc(Cl)cn1 [Compound 093] |
| 0.36 µM | O=C(Nc1cc(C(F)(F)F)cnc1N1CCCC(O)CC1)c1ccc(C2CCOCC2)o1 (stereo not shown) [Compound 031] |
